From patent publication US6685617B1, “Inhibitors of α4β1 mediated cell adhesion” (Pharmacia & Upjohn Company, priority 1998, dated 2004)

How the values were obtained:
[1] = target: T1, α4β1 integrin (Jurkat cell adhesion to immobilized CS-1 derived peptide CLHPGEILDVPST) (Homo sapiens, UniProt P05556+P13612); test: Jurkat-CS-1 assay; format: cell-based; conditions: Jurkat cells on CS-1 peptide coated plates; read-out: JK/CS-1 (Jurkat CS-1 Assay IC50 value range)
T1 construct: 100 μl of Jurkat cells (2.5×10^6 cells/ml) in DMEM plus BSA; host or cells: Jurkat T-cell line
How it was run: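 CS-1 peptide was SPDP-crosslinked onto HSA-coated plates and blocked with BSA. Jurkat cells (2.5×10^6 cells/ml) in DMEM/BSA were mixed with compound, generally at 100, 20, 5 and 1.25 μM, and allowed to adhere for 1 hr at 37° C. Bound cells were fixed, stained with toluidine blue and quantified by OD590.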

[2] = target: T2, α4β1 integrin (Jurkat T-cell adhesion to IL-1 stimulated endothelial cell monolayers) (Homo sapiens, UniProt P05556+P13612); test: Jurkat-endothelial cell adhesion assay (Jurkat EC); format: cell-based; conditions: Jurkat cells on IL-1 stimulated human umbilical vein endothelial cells; read-out: JK/EC (Jurkat EC Assay IC50 value range)
T2 construct: a T-cell line, Jurkat, known to express the α4β1 integrin; host or cells: Jurkat T-cell line
How it was run: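 Adhesion was expressed as percent of compound-free fluorescence after 20 min at 37° C (following 5 min settling on ice) of BCECF-loaded Jurkat T cells on washed HUVEC monolayers. The endothelium, passage 6 or lower, had received 0.1 ng/ml recombinant IL-1 for 4 hr at 37° C; compound was premixed with the T cells, typically at 100, 20, 5 and 1.25 μM.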

T2 sequence (P13612 34-1032): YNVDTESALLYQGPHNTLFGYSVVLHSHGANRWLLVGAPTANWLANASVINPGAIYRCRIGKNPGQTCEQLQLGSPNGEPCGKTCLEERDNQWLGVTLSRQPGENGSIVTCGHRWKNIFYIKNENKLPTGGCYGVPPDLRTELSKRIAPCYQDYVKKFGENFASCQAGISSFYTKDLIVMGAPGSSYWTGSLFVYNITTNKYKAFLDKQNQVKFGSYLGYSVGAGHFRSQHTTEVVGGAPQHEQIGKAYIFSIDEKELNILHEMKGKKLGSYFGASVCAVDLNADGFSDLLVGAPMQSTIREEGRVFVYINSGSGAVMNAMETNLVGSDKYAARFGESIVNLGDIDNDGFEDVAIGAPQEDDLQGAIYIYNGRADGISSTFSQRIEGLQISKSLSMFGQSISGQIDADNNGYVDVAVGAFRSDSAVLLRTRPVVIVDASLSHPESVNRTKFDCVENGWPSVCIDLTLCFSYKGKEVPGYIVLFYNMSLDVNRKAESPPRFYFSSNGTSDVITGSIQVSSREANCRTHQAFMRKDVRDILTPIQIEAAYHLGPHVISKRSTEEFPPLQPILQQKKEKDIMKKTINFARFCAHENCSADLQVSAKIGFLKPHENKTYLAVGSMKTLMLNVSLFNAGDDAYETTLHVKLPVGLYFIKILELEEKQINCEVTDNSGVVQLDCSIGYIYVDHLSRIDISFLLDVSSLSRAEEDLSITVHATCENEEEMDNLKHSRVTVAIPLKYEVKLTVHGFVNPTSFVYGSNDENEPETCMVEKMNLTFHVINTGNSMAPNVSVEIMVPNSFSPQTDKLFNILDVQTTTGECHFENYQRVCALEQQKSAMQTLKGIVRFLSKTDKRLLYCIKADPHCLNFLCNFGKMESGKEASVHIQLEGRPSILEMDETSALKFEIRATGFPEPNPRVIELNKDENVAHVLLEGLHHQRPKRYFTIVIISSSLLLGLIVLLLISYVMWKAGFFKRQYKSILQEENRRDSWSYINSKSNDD
T2 sequence (P05556 21-798): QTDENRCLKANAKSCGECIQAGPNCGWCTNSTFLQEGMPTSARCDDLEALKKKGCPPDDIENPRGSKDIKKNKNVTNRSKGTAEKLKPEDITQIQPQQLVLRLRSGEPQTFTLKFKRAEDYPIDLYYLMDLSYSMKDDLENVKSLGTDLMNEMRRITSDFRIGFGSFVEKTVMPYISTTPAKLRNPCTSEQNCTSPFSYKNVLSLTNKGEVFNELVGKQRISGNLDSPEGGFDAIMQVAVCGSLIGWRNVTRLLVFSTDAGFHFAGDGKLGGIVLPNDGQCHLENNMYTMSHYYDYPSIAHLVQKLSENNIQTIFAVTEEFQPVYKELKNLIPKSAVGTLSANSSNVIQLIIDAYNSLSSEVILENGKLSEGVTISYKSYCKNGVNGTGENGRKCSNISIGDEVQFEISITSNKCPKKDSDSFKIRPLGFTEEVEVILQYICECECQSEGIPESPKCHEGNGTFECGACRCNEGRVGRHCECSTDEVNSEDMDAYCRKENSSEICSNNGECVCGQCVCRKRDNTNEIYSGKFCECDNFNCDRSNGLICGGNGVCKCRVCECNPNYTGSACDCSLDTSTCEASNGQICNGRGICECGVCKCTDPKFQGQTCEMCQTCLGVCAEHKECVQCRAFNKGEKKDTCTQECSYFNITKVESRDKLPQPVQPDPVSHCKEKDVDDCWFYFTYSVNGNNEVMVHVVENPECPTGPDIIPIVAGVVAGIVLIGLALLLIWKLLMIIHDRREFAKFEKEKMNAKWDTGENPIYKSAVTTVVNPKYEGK
T1 sequence (P13612 34-1032): as the sequence (P13612 34-1032) above
T1 sequence (P05556 21-798): as the sequence (P05556 21-798) above

Molecule | IC50 [1] [nM] | IC50 [2] [nM]
CCOC(=O)N1CSC[C@@H]1C(=O)N[C@@H](Cc1ccc(NC(=O)c2c(Cl)cccc2Cl)cc1)C(=O)OCc1ccncc1 [Example 154, [S-(R*,R*) 4-[[[1-[4-[(2,6-Dichlorobenzoyl)amino]phenyl]methyl]-2-[(4-pyridinyl)methoxy]-2-oxoethyl]amino]carbonyl]-3-thiazolidinecarboxylic Acid 3-Ethyl Ester] | ≤ 50 | 250 to 1000
COC(=O)[C@H](Cc1ccc(OCc2c(Cl)cccc2Cl)cc1)NC(=O)CCC1(C(=O)O)CCC(=O)N1 (stereo partly drawn) [Example 116, 2-[3-[[(1S)-1-[[4-[(2,6-Dichlorophenyl)methoxy]phenyl]methyl]-2-methoxy-2-oxoethyl]amino]-3-oxopropyl]-5-oxoproline] | ≥ 750 | ≥ 1000
O=C(Nc1ccc(C[C@H](NC(=O)[C@@H]2CSCN2C(=O)C2NC(C(=O)O)CS2)C(=O)O)cc1)c1c(Cl)cccc1Cl (stereo partly shown) [Example 244] | 50 to 750 | 250 to 1000
COC(=O)CCC1(CCC(=O)N[C@@H](Cc2ccc(NC(=O)c3c(Cl)cccc3Cl)cc2)C(=O)OC)CCC(=O)N1 (stereo partly drawn) [Example 114, 2-[3-[[(1S)-1-[[4-[(2,6-Dichlorobenzoyl)amino]phenyl]methyl]-2-methoxy-2-oxoethyl]amino]-3-oxopropyl]-5-oxo-2-pyrrolidinepropanoic Acid Methyl Ester] | ≥ 750 | ≥ 1000
COC(=O)[C@H](Cc1ccc(NC(=O)c2c(Cl)cccc2Cl)cc1)NC(=O)[C@H]1CSCN1S(=O)(=O)c1ccccc1 [Example 46, 4-[(2,6-Dichlorobenzoyl)amino]-N-[[(4S)-3-(phenylsulfonyl)-4-thiazolidinyl]carbonyl]-L-phenylalanine Methyl Ester] | ≥ 750 | ≥ 1000
COC(=O)CCCC(=O)N1CSC[C@@H]1C(=O)N[C@@H](Cc1ccc(NC(=O)c2c(Cl)cccc2Cl)cc1)C(=O)O (relative stereo) [Example 151, [S-(R*,R*)]-4-[[[1-Carboxy-2-[4-[(2,6-dichlorobenzoyl)amino]phenyl]ethyl]amino]carbonyl]-δ-oxo-3-thiazoidinepentanoic Acid Methyl Ester] | ≤ 50 | ≤ 250
O=C(O)/C=C/C(=O)N1CCCC[C@@H]1C(=O)N[C@@H](Cc1ccc(NC(=O)c2c(Cl)cccc2Cl)cc1)C(=O)O [Example 248] | 50 to 750 | 250 to 1000
CC(C)=CCN1C(=O)CCC1(CCC(=O)O)CCC(=O)N[C@@H](Cc1ccc(OCc2c(Cl)cccc2Cl)cc1)C(=O)O (stereo partly drawn) [Example 109, 2-[3-[[(1S)-1-Carboxy-2-[4-[(2,6-dichlorophenyl)methoxy]phenyl]ethyl]amino]-3-oxo-propyl]-1-(3-methyl-2-butenyl)-5-oxo-2-pyrrolidinepropanoic Acid] | ≥ 750 | ≥ 1000
COc1ccc(C(=O)N2CCCC(C(=O)N[C@@H](Cc3ccc(NC(=O)c4c(Cl)cccc4Cl)cc3)C(=O)O)C2)cc1OC (stereo partly shown) [Example 203] | 50 to 750 | ≥ 1000
CC(=O)CCC(=O)N1CCCC(C(=O)N[C@@H](Cc2ccc(NC(=O)c3c(Cl)cccc3Cl)cc2)C(=O)O)C1 (stereo partly shown) [Example 201] | 50 to 750 | ≥ 1000
O=C(Nc1ccc(C[C@H](NC(=O)[C@@H]2CSCN2C(=O)C2CCCO2)C(=O)O)cc1)c1c(Cl)cccc1Cl (stereo partly shown) [Example 245] | 50 to 750 | ≤ 250
CC1(C)N[C@H](C(=O)N[C@@H](Cc2ccc(NC(=O)c3c(Cl)cccc3Cl)cc2)C(=O)O)CS1 [Example 74, 4-[(2,6-Dichlorobenzoyl)amino]-N-[[(4R)-2,2-dimethyl-4-thiazolidinyl]carbonyl]-L-phenylalanine] | 50 to 750 | 250 to 1000
O=C(Nc1ccc(C[C@H](NC(=O)[C@@H]2CSCN2C(=O)c2cccnc2)C(=O)O)cc1)c1c(Cl)cccc1Cl [Example 239] | 50 to 750 | ≥ 1000
COC(=O)CCCC(=O)N1CSC[C@@H]1C(=O)N[C@@H](Cc1ccc(NC(=O)c2c(Cl)cccc2Cl)cc1)C(=O)OC (relative stereo) [Example 59, [S-(R*,R*)]-4-[[[1-[4-[(2,6-dichlorobenzoyl)amino]phenyl]methyl]-2-methoxy-2-oxoethyl]amino]carbonyl]-δ-oxo-3-thiazolidinepentanoic Acid 3-Methyl Ester] | 50 to 750 | ≥ 1000
CCOC(=O)N1[C@@H](C(=O)N[C@@H](Cc2ccc(NC(=O)c3c(Cl)cccc3Cl)cc2)C(=O)O)C(C)(C)SC1(C)C (relative stereo) [Example 82, [S-(R*,R*)]-4-[[[1-Carboxy-2-[4-[(2,6-dichlorobenzoyl)amino]phenyl]ethyl]amino]carbonyl]-2,2,5,5-tetramethyl-3-thiazolidinecarboxylic Acid 3-Ethyl Ester] | 50 to 750 | 250 to 1000
COC(=O)[C@H](Cc1ccc(NC(=O)c2c(Cl)cccc2Cl)cc1)NC(=O)[C@H]1CSCN1C(=O)OC(C)(C)C (relative stereo) [Example 1, [S-(R*,R*)]-4-[[[1-[[4-[(2,6-Dichlorobenzoyl)amino]phenyl]methyl]-2-methoxy-2-oxoethyl]amino]carbonyl]-3-thiazolidinecarboxylic Acid 3-(1,1-Dimethylethyl)ester] | 50 to 750 | ≥ 1000
COCCC(=O)N1CCCC(C(=O)N[C@@H](Cc2ccc(NC(=O)c3c(Cl)cccc3Cl)cc2)C(=O)O)C1 (stereo partly drawn) [Example 173, 4-[(2,6-Dichlorobenzoyl)amino]-N-[[1-(3-methoxy-1-oxopropyl)-3-piperidinyl]carbonyl]-L-phenylalanine] | 50 to 750 | ≤ 250
O=C(O)CCC(=O)N1CCC[C@H]1C(=O)N[C@@H](Cc1ccc(NC(=O)c2c(Cl)cccc2Cl)cc1)C(=O)O [Example 224] | 50 to 750 | ≥ 1000
CC(C)(C)OC(=O)N1CSC[C@@H]1C(=O)N[C@H](Cc1ccc(NC(=O)c2c(Cl)cccc2Cl)cc1)C(=O)O (stereo in doubt) [Example 27, [S-(R*,S*)]-4-[[[1-Carboxy-2-[4-[(2,6-dichlorobenzoyl)amino]phenyl]ethyl]amino]carbonyl]-3-thiazolidinecarboxylic Acid 3-(1,1-Dimethylethyl)ester] | ≥ 750 | ≥ 1000
O=C(O)c1ccc(C(=O)N2CSC[C@H]2C(=O)N[C@@H](Cc2ccc(NC(=O)c3c(Cl)cccc3Cl)cc2)C(=O)O)nc1 [Example 241] | 50 to 750 | ≥ 1000
[S]-3-[[[1-[[4-[(2,6-Dichlorobenzoyl)amino]phenyl]methyl]-2-methoxy-2-oxoethyl]amino]-carbonyl]-1-azetidinecarboxylic Acid 1-(1,1-Dimethyl)ethyl Ester [Example 145] | ≥ 750 | ≥ 1000
O=C(Nc1ccc(C[C@H](NC(=O)[C@H]2CSCN2C(=O)N(CCO)CCO)C(=O)O)cc1)c1c(Cl)cccc1Cl [Example 58, N-[[(4S)-3-[[bis(2-Hydroxyethyl)amino]carbonyl]thiazoldinyl]carbonyl]-4-[(2,6-dichlorobenzoyl)amino]-L-phenylalanine] | ≤ 50 | ≤ 250
O=C(Nc1ccc(C[C@H](NC(=O)[C@@H]2CCCN2C(=O)C2CCCC(C(=O)O)C2)C(=O)O)cc1)c1c(Cl)cccc1Cl (stereo partly shown) [Example 230] | 50 to 750 | ≥ 1000
